Consider 10 compounds from ChEMBL document CHEMBL6127119 (J Med Chem, 2024).

≈ marks a conversion by molar mass, not a printed value.

Holding throughout (type): functional
What all share (conditions): time 16-24 hrs

The test system of experiment [1] is Klebsiella pneumoniae. Kind of experiment: Antibacterial activity against Klebsiella pneumoniae clinical isolate incubated for 16 to 24 hrs by CLSI based broth microdilution method. For orientation: In broth dilution the organism is exposed to a series of concentrations in liquid medium.
Experiment [2] deals with Staphylococcus aureus. Kind of experiment: Antibacterial activity against methicillin-susceptible Staphylococcus aureus incubated for 16 to 24 hrs by CLSI based broth microdilution method.
The test system of experiment [3] is Enterococcus faecium. Kind of experiment: Antibacterial activity against vancomycin-resistant Enterococcus faecium harboring VanB phenotype incubated for 16 to 24 hrs by CLSI based broth microdilution method.
The test system of experiment [4] is Staphylococcus aureus. Kind of experiment: Antibacterial activity against vancomycin-intermediate Staphylococcus aureus incubated for 16 to 24 hrs by CLSI based broth microdilution method.
Experiment [5] relates to Escherichia coli. The experiment is described as follows: Antibacterial activity against Escherichia coli AB1157 incubated for 16 to 24 hrs by CLSI based broth microdilution method.
For experiment [6], the system named is Enterococcus faecium. Kind of experiment: Antibacterial activity against vancomycin-resistant Enterococcus faecium harboring VanA phenotype incubated for 16 to 24 hrs by CLSI based broth microdilution method.
Experiment [7] has as its system Acinetobacter baumannii. The experiment is described as follows: Antibacterial activity against Carbapenem-resistant Acinetobacter baumannii clinical isolate incubated for 16 to 24 hrs by CLSI based broth microdilution method.
For experiment [8], the system named is Enterococcus faecium. Kind of experiment: Antibacterial activity against vancomycin-resistant Enterococcus faecium harboring VanM phenotype incubated for 16 to 24 hrs by CLSI based broth microdilution method.

As for `CN[C@H](CC(C)C)C(=O)N[C@H]1C(=O)N[C@@H](CC(N)=O)C(=O)N[C@H]2C(=O)N[C@H]3C(=O)N[C@H](C(=O)N[C@H](C(=O)NCCc4ccc(-c5ccc(CN)cc5)cc4)c4cc(O)cc(O)c4-c4cc3ccc4O)[C@H](O)c3ccc(c(Cl)c3)Oc3cc2cc(c3O[C@@H]2O[C@H](CO)[C@@H](O)[C@H](O)[C@H]2O[C@H]2C[C@](C)(N)[C@H](O)[C@H](C)O2)Oc2ccc(cc2Cl)[C@H]1O`, the MIC (in general, the smallest concentration in the dilution series that meets the test's criterion for growth inhibition) in experiment [1] is more than 128 µg/mL; in experiment [2], 0.25 µg/mL (≈ 0.151 µM); in experiment [3] it was 8 µg/mL (≈ 4.83 µM); in experiment [4], 1 µg/mL (≈ 0.603 µM); in experiment [5], 16 µg/mL (≈ 9.65 µM); in experiment [6], 8 µg/mL (≈ 4.83 µM). In addition, the lowest concentration to inhibit growth in experiment [7] (MIC) was 32 µg/mL (≈ 19.3 µM).
Regarding `CN[C@H](CC(C)C)C(=O)N[C@H]1C(=O)N[C@@H](CC(N)=O)C(=O)N[C@H]2C(=O)N[C@H]3C(=O)N[C@H](C(=O)N[C@H](C(=O)O)c4cc(O)cc(O)c4-c4cc3ccc4O)[C@H](O)c3ccc(c(Cl)c3)Oc3cc2cc(c3O[C@@H]2O[C@H](CO)[C@@H](O)[C@H](O)[C@H]2O[C@H]2C[C@](C)(NCc3ccc(-c4ccc(CCNC(=N)N)cc4)cc3)[C@H](O)[C@H](C)O2)Oc2ccc(cc2Cl)[C@H]1O`, the MIC in experiment [1] was more than 128 µg/mL; in experiment [2], 0.125 µg/mL (≈ 0.0735 µM); in experiment [3] it was 4 µg/mL (≈ 2.35 µM); in experiment [4], 2 µg/mL (≈ 1.18 µM); in experiment [5], 64 µg/mL (≈ 37.6 µM); in experiment [6] it was 8 µg/mL (≈ 4.7 µM). In experiment [7], this compound showed a minimal inhibitory concentration (MIC) of 64 µg/mL (≈ 37.6 µM).
For `CN[C@H](CC(C)C)C(=O)N[C@H]1C(=O)N[C@@H](CC(N)=O)C(=O)N[C@H]2C(=O)N[C@H]3C(=O)N[C@H](C(=O)N[C@H](C(=O)O)c4cc(O)cc(O)c4-c4cc3ccc4O)[C@H](O)c3ccc(c(Cl)c3)Oc3cc2cc(c3O[C@@H]2O[C@H](CO)[C@@H](O)[C@H](O)[C@H]2O[C@H]2C[C@](C)(NCc3ccc(-c4ccc(CCN)cc4)cc3)[C@H](O)[C@H](C)O2)Oc2ccc(cc2Cl)[C@H]1O`, the minimum inhibitory concentration (MIC) in experiment [1] was more than 128 µg/mL; in experiment [2], 0.25 µg/mL (≈ 0.151 µM); in experiment [3], 8 µg/mL (≈ 4.82 µM); in experiment [4] it was 2 µg/mL (≈ 1.21 µM); in experiment [5], 64 µg/mL (≈ 38.6 µM); in experiment [6] it was 16 µg/mL (≈ 9.65 µM). The same compound displayed an MIC in experiment [7] of 64 µg/mL (≈ 38.6 µM).
In the case of `CC(C)C[C@H](C(=O)N[C@H]1C(=O)N[C@@H](CC(N)=O)C(=O)N[C@H]2C(=O)N[C@H]3C(=O)N[C@H](C(=O)N[C@H](C(=O)O)c4cc(O)cc(O)c4-c4cc3ccc4O)[C@H](O)c3ccc(c(Cl)c3)Oc3cc2cc(c3O[C@@H]2O[C@H](CO)[C@@H](O)[C@H](O)[C@H]2O[C@H]2C[C@](C)(N)[C@H](O)[C@H](C)O2)Oc2ccc(cc2Cl)[C@H]1O)N(C)Cc1ccc(-c2ccc(CCNC(=N)N)cc2)cc1`, the minimal inhibitory concentration (MIC) is 32 µg/mL (≈ 18.8 µM) in experiment [8]; more than 128 µg/mL in experiment [1]; 2 µg/mL (≈ 1.18 µM) in experiment [2]; 32 µg/mL (≈ 18.8 µM) in experiment [3]; 4 µg/mL (≈ 2.35 µM) in experiment [4]; more than 128 µg/mL in experiment [5]. Also, the figures for the MIC in experiment [6] and in experiment [7] were 32 µg/mL (≈ 18.8 µM) and more than 128 µg/mL, respectively.
For `CN[C@H](CC(C)C)C(=O)N[C@H]1C(=O)N[C@@H](CC(N)=O)C(=O)N[C@H]2C(=O)N[C@H]3C(=O)N[C@H](C(=O)N[C@H](C(=O)NCc4ccc(-c5ccc(CN)cc5)cc4)c4cc(O)cc(O)c4-c4cc3ccc4O)[C@H](O)c3ccc(c(Cl)c3)Oc3cc2cc(c3O[C@@H]2O[C@H](CO)[C@@H](O)[C@H](O)[C@H]2O[C@H]2C[C@](C)(N)[C@H](O)[C@H](C)O2)Oc2ccc(cc2Cl)[C@H]1O`, the MIC is more than 128 µg/mL in experiment [1]; not above 0.063 µg/mL in experiment [2]; 8 µg/mL (≈ 4.87 µM) in experiment [3]; 1 µg/mL (≈ 0.608 µM) in experiment [4]; 16 µg/mL (≈ 9.74 µM) in experiment [5]; 8 µg/mL (≈ 4.87 µM) in experiment [6]. In addition, 32 µg/mL (≈ 19.5 µM) was the least that counted as inhibitory in experiment [7] (MIC).
Consider `CN[C@H](CC(C)C)C(=O)N[C@H]1C(=O)N[C@@H](CC(N)=O)C(=O)N[C@H]2C(=O)N[C@H]3C(=O)N[C@H](C(=O)N[C@H](C(=O)O)c4cc(O)cc(O)c4-c4cc3ccc4O)[C@H](O)c3ccc(c(Cl)c3)Oc3cc2cc(c3O[C@@H]2O[C@H](CO)[C@@H](O)[C@H](O)[C@H]2O[C@H]2C[C@](C)(NCc3ccc(-c4ccc(CNC(=N)N)cc4)cc3)[C@H](O)[C@H](C)O2)Oc2ccc(cc2Cl)[C@H]1O`, for which the MIC in experiment [1] is more than 128 µg/mL; in experiment [2], 0.125 µg/mL (≈ 0.0741 µM); in experiment [3] it was 4 µg/mL (≈ 2.37 µM); in experiment [4], 2 µg/mL (≈ 1.19 µM); in experiment [5] it was 64 µg/mL (≈ 37.9 µM); in experiment [6], 4 µg/mL (≈ 2.37 µM). Moreover, the MIC in experiment [7] came out at 64 µg/mL (≈ 37.9 µM).
With `CC(C)C[C@H](C(=O)N[C@H]1C(=O)N[C@@H](CC(N)=O)C(=O)N[C@H]2C(=O)N[C@H]3C(=O)N[C@H](C(=O)N[C@H](C(=O)O)c4cc(O)cc(O)c4-c4cc3ccc4O)[C@H](O)c3ccc(c(Cl)c3)Oc3cc2cc(c3O[C@@H]2O[C@H](CO)[C@@H](O)[C@H](O)[C@H]2O[C@H]2C[C@](C)(N)[C@H](O)[C@H](C)O2)Oc2ccc(cc2Cl)[C@H]1O)N(C)Cc1ccc(-c2ccc(CN)cc2)cc1`, the MIC in experiment [8] was 64 µg/mL (≈ 38.9 µM); in experiment [1] it was more than 128 µg/mL; in experiment [2] it was 1 µg/mL (≈ 0.608 µM); in experiment [3], 64 µg/mL (≈ 38.9 µM); in experiment [4], 8 µg/mL (≈ 4.86 µM); in experiment [5], more than 128 µg/mL. For the same compound, the figures for the minimum inhibitory concentration (MIC) in experiment [6] and in experiment [7] were 64 µg/mL (≈ 38.9 µM) and more than 128 µg/mL, respectively.
For `CN[C@H](CC(C)C)C(=O)N[C@H]1C(=O)N[C@@H](CC(N)=O)C(=O)N[C@H]2C(=O)N[C@H]3C(=O)N[C@H](C(=O)N[C@H](C(=O)O)c4cc(O)cc(O)c4-c4cc3ccc4O)[C@H](O)c3ccc(c(Cl)c3)Oc3cc2cc(c3O[C@@H]2O[C@H](CO)[C@@H](O)[C@H](O)[C@H]2O[C@H]2C[C@](C)(NCc3ccc(-c4ccc(CN)cc4)cc3)[C@H](O)[C@H](C)O2)Oc2ccc(cc2Cl)[C@H]1O`, the MIC in experiment [1] is more than 128 µg/mL; in experiment [2] it was 0.25 µg/mL (≈ 0.152 µM); in experiment [3], 16 µg/mL (≈ 9.73 µM); in experiment [4], 2 µg/mL (≈ 1.22 µM); in experiment [5] it was 64 µg/mL (≈ 38.9 µM); in experiment [6], 16 µg/mL (≈ 9.73 µM). In addition, it took 128 µg/mL (≈ 77.8 µM) to inhibit growth in experiment [7] (MIC).
Consider `CC(C)C[C@@H](N)C(=O)N[C@H]1C(=O)N[C@@H](CC(N)=O)C(=O)N[C@H]2C(=O)N[C@H]3C(=O)N[C@H](C(=O)N[C@H](C(=O)NCc4ccc(CNC(=N)N)cc4)c4cc(O)cc(O)c4-c4cc3ccc4O)[C@H](O)c3ccc(c(Cl)c3)Oc3cc2cc(c3O[C@@H]2O[C@H](CO)[C@@H](O)[C@H](O)[C@H]2O[C@H]2C[C@](C)(N)[C@H](O)[C@H](C)O2)Oc2ccc(cc2Cl)[C@H]1O`, for which the minimal inhibitory concentration (MIC) in experiment [8] came to 16 µg/mL (≈ 10 µM); in experiment [2], 0.25 µg/mL (≈ 0.157 µM); in experiment [3], 8 µg/mL (≈ 5.01 µM); in experiment [4], 1 µg/mL (≈ 0.627 µM); in experiment [5], 8 µg/mL (≈ 5.01 µM); in experiment [6], 16 µg/mL (≈ 10 µM). This compound showed a minimal inhibitory concentration (MIC) in experiment [7] of 32 µg/mL (≈ 20.1 µM).
For the compound `CC(C)C[C@@H](N)C(=O)N[C@H]1C(=O)N[C@@H](CC(N)=O)C(=O)N[C@H]2C(=O)N[C@H]3C(=O)N[C@H](C(=O)N[C@H](C(=O)NCc4ccc(CN)cc4)c4cc(O)cc(O)c4-c4cc3ccc4O)[C@H](O)c3ccc(c(Cl)c3)Oc3cc2cc(c3O[C@@H]2O[C@H](CO)[C@@H](O)[C@H](O)[C@H]2O[C@H]2C[C@](C)(N)[C@H](O)[C@H](C)O2)Oc2ccc(cc2Cl)[C@H]1O`, the MIC in experiment [8] was 64 µg/mL (≈ 41.2 µM); in experiment [2], 1 µg/mL (≈ 0.644 µM); in experiment [3], 64 µg/mL (≈ 41.2 µM); in experiment [4], 1 µg/mL (≈ 0.644 µM); in experiment [5], 16 µg/mL (≈ 10.3 µM); in experiment [6], 128 µg/mL (≈ 82.4 µM). Further, the MIC in experiment [7] stood at 64 µg/mL (≈ 41.2 µM).
